Experiments:
Assay type in all cases: binding
Conditions in all cases: Compound Concentration 10 µM
panel of 442 kinases [1] = molecular target: T1, panel of 442 kinases (Homo sapiens, UniProt P00533, DEL752-759)
T1 construct: purchased KINOMEscan
Description: (§1) We assessed the selectivity of members of this scaffold using the KINOMEscan methodology across a near comprehensive panel of 442 kinases [[18,27]].

panel of 442 kinases [2] = molecular target: T2, panel of 442 kinases (Homo sapiens, UniProt Q13131)
T2 construct: purchased KINOMEscan
Description: as §1

panel of 442 kinases [3] = molecular target: T3, panel of 442 kinases (Homo sapiens, UniProt Q9BWU1)
T3 construct: purchased KINOMEscan
Description: as §1

T1 sequence (P00533 with tags, fused parts or gaps DEL752-759): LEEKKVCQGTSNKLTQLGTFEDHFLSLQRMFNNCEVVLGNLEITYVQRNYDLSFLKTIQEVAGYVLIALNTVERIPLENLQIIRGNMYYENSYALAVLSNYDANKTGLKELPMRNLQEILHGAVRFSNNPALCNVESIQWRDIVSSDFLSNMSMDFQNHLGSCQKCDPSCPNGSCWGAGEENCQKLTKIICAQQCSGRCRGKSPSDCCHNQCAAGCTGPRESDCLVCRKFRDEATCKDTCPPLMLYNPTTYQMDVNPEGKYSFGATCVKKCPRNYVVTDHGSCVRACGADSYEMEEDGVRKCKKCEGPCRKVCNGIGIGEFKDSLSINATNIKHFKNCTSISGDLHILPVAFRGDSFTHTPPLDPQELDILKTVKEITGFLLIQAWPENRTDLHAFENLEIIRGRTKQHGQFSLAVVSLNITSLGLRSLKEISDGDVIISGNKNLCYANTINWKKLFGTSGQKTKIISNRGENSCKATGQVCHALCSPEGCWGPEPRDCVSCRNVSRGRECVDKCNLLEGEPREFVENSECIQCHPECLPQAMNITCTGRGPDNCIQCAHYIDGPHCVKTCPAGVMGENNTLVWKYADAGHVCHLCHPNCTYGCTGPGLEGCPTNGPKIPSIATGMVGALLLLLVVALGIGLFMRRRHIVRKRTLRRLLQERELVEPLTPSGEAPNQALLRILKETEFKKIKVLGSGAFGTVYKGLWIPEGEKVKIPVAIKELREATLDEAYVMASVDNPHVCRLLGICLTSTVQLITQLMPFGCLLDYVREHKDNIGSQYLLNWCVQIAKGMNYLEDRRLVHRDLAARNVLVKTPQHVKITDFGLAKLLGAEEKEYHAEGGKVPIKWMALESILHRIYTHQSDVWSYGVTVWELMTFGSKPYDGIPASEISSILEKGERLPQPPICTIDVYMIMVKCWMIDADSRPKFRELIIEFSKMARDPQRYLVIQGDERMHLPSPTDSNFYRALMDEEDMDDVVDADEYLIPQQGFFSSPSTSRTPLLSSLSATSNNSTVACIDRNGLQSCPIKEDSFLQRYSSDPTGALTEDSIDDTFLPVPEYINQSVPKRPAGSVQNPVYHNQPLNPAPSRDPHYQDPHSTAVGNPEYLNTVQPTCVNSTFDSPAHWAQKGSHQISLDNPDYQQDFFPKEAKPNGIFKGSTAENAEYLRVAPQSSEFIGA
T2 sequence (Q13131 whole entry): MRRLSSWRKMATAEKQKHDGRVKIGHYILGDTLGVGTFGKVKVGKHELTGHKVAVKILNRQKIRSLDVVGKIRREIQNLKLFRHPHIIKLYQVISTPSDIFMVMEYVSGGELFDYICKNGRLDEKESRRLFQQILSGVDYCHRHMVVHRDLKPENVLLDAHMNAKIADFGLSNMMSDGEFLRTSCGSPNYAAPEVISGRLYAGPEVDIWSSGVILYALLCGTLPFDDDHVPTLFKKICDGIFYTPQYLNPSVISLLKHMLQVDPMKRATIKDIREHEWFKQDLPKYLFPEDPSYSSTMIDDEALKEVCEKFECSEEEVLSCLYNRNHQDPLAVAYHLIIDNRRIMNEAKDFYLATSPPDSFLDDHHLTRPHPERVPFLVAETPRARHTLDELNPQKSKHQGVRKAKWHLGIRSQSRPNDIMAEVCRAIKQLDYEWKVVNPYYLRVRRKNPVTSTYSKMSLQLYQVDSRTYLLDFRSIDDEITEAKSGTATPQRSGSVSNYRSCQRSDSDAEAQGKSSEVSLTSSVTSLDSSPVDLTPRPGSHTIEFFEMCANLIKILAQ
T3 sequence (Q9BWU1 whole entry): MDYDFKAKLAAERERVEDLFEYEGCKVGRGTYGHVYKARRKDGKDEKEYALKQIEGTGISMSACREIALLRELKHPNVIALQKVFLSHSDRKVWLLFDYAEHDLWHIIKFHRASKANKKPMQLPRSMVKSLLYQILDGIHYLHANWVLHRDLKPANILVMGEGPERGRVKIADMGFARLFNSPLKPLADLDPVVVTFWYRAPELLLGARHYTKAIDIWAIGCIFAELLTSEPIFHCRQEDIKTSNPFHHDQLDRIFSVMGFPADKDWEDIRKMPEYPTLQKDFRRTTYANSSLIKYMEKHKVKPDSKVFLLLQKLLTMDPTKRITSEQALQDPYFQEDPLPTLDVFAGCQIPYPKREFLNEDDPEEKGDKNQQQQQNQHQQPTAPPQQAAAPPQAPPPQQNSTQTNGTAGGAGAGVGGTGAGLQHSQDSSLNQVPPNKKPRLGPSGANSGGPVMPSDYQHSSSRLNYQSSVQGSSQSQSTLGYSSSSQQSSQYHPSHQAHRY

**Q.** For `COc1cc(C(=O)N2CCC(N3CCN(C)CC3)CC2)ccc1Nc1ncc2c(n1)N(C1CCCC1)c1ccccc1C(=O)N2C` [Compound 25, 11-cyclopentyl-2-((2-methoxy-4-(4-(4-methylpiperazin-1-yl)piperidine-1-carbonyl)phenyl)amino)-5-methyl-5H-benzo[e]pyrimido[5,4-b][1,4]diazepin-6(11H)-one], which “KINOMEscan: EGFR(S752-I759del)” value (panel of 442 kinases [1]) is on record?
**A.** 80

**Q.** What about the “KINOMEscan: AMPK-alpha1” value (panel of 442 kinases [2]) of the same molecule?
**A.** 48

**Q.** What about the “KINOMEscan: CDK11” value (panel of 442 kinases [3]) of the same molecule?
**A.** 87

**Q.** With `CCOc1cc(C(=O)N2CCC(N3CCN(C)CC3)CC2)ccc1Nc1ncc2c(n1)N(C1CCCC1)c1ccccc1C(=O)N2C` [Compound 26] as the molecule, how does the “KINOMEscan: EGFR(S752-I759del)” value (panel of 442 kinases [1]) read?
**A.** 86

**Q.** What about the “KINOMEscan: AMPK-alpha1” value (panel of 442 kinases [2]) of the same molecule?
**A.** 100

**Q.** What about the “KINOMEscan: CDK11” value (panel of 442 kinases [3]) of the same molecule?
**A.** 100

**Q.** `COc1cc(C(=O)N2CCC(N3CCN(C)CC3)CC2)ccc1Nc1ncc2c(n1)N1CCc3cccc(c31)C(=O)N2C` [Compound 24] was tested. Which “KINOMEscan: EGFR(S752-I759del)” value (panel of 442 kinases [1]) did it give?
**A.** 80

**Q.** And the “KINOMEscan: CDK11” value (panel of 442 kinases [3])?
**A.** 96

**Q.** For `COc1cc(C(=O)N2CCC(N3CCN(C)CC3)CC2)ccc1Nc1ncc2c(n1)N(C)c1ccccc1C(=O)N2C` [15 (LRRK2-IN-1)], which “KINOMEscan: EGFR(S752-I759del)” value (panel of 442 kinases [1]) is on record?
**A.** 99

**Q.** What about the “KINOMEscan: AMPK-alpha1” value (panel of 442 kinases [2]) of the same molecule?
**A.** 51

**Q.** And the “KINOMEscan: CDK11” value (panel of 442 kinases [3])?
**A.** 100

From PMC3914206
